Melting point and IC50 data for four molecules are collected here from US6358961B1, “Farnesyltransferase inhibiting quinazolinones” (Jannsen-Cilag S.A., priority 1997, dated 2002).

Each structure is given as a SMILES string.

Data set [1] relates to NIH 3T3 cells transformed by the T24 activated human H-ras gene. As to the kind of experiment: Ras-Transformed Cell Phenotype Reversion Assay. Format: cell-based, mouse. As to conditions: NIH3T3; cell counts after 72 hours proliferation; test concentrations 5, 10, 50, 100 and 500 nM. The source says: “Ras-Transformed Cell Phenotype Reversion Assay”
Insertion of activated oncogenes such as the mutant ras gene into mouse NIH 3T3 cells converts the cells to a transformed phenotype, The cells become tumorigenic, display anchorage independent growth in semi-solid medium and lose contact inhibition. Loss of contact inhibition produces cell cultures which no longer form uniform monolayers. Rather, the cells pile up into multicellular nodules and grow to very high saturation densities in plastic tissue culture dishes. Agents such as protein famesyl transferase inhibitors which revert the ras transformed phenotype restore the uniform monolayer growth pattern to cells in culture. This reversion is easily monitored by counting the number of cells in tissue culture plates. Transformed cells will achieve higher cell numbers than cells which have reverted to an untransformed phenotype. Compounds which revert the transformed phenotype should produce antitumor effects in tumors bearing ras gene mutations.
Compounds are screened in tissue culture in NIH 3T3 cells transformed by the T24 activated human H-ras gene. […] Then the cells are detached in 1.0 ml trypsin-EDTA cell dissociation medium and counted on a Coulter particle counter.
Cell numbers expressed as cells per well are measured using a Coulter Particle Counter. […]

For the molecule `O=C1Nc2ccc(C(c3ccc(Cl)cc3)n3ccnc3)cc2C(c2cccc(Cl)c2)N1` (racemic) [Compound 8, (±)-4-(3-chlorophenyl)-6-[(4-chlorophenyl)-1H-imidazol-1-ylmethyl]-3,4-dihydro-2(1H)-quinazolinone], the melting point is 177.1 °C.

With `O=c1nc(-c2cccc(Cl)c2)c2cc(C(c3ccc(Cl)cc3)n3ccnc3)ccc2n1Cc1ccncc1` (racemic) [Compound 3, (±)-4-(3-chlorophenyl)-6-[(4-chlorophenyl)-1H-imidazol-1-ylmethyl]-1-(4-pyridinylmethyl)-2(1H)-quinazolinone], the melting point was found to be 61.4 °C.

In turn, `O=c1nc(-c2cccc(Cl)c2)c2cc(C(c3ccc(Cl)cc3)n3ccnc3)ccc2[nH]1` (racemic) [Compound 1, (±)-4-(3-chlorophenyl)-6[(4-chlorophenyl)-1H-imidazol-1-ylmethyl]-2(1H)-quinazolinone] displayed a melting point of 255.1 °C.

For `CN1C(=O)NC(c2cccc(Cl)c2)c2cc(C(c3ccc(Cl)cc3)c3cncn3C)ccc21` (racemic) [Compound 14, (±)-4-(3-chlorophenyl)-6-[(4-chlorophenyl)(1-methyl-1H-imidazol-5-yl)methyl]-3,4-dihydro-1-methyl-2(1H)-quinazolinone], the IC50 in data set [1] is < 500 nM.
